Test results as given in patent publication US7560466B2, “Methods of treating or preventing autoimmune diseases with 2,4-pyrimidinediamine compounds” (Rigel Pharmaceuticals, Inc., priority 2003, dated 2009).
Counter-ions that a name gives are not always drawn. Like-named read-outs stand apart in the source and are kept apart here.

Tests used:
[1] = system: cultured human mast cells (CHMC), IgE-induced degranulation; test: CHMC low cell density IgE activation: tryptase assay; format: cell-based
Summary of the method: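 Tryptase release read fluorogenically (30 min, room temperature) from supernatants of anti-IgE-challenged cultured human mucosal mast cells derived from umbilical cord CD34+ cells, at low density of 1000–1500 cells/well.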

[2] = system: cultured human mast cells (CHMC), ionomycin-induced degranulation; test: CHMC low cell density ionomycin activation: tryptase assay; format: cell-based; settings: read-out: LD Tryptase, CHMC, Iono, 3pt
[3] = low cell density CHMC, 3-point, read-out: LD Tryptase, CHMC, IgE, 3pt
[4] = low cell density CHMC, 8-point, read-out: LD Tryptase, CHMC, IgE, 8pt
[5] = low cell density CHMC, ionomycin activation, 3-point
[6] = low cell density CHMC, 3pt, read-out: LD Tryptase, CHMC, IgE, 3pt
[7] = low cell density CHMC, 8pt, read-out: LD Tryptase, CHMC, IgE, 8pt
[8] = low cell density CHMC, ionomycin activation, 3pt
[9] = low cell density CHMC, ionomycin activation (2 μM final), 3pt
[10] = CHMC low cell density, 3pt, read-out: LD Tryptase, CHMC, IgE, 3pt
[11] = CHMC low cell density, ionomycin activation, 3pt

Compound | IC50 [1, 3] [µM] | IC50 [1, 4] [µM] | IC50 [2, 5] [µM] | IC50 [1, 6] [µM] | further results
COC(=O)C=NC(=O)c1ccc(Nc2ncc(F)c(Nc3ccc4c(c3)NC(=O)[C@@H](C)O4)n2)cc1 [Compound 1272, (R)-5-Fluoro-N2-[4-(N-methoxycarbonylmethyleneamino)carbonylphenyl]-N4-(2-methyl-3-oxo-2H,4H-benz[1,4]oxazin-6-yl)-2,4-pyrimidinediamine] |  |  |  |  | IC50 ([1]; Homo sapiens, Mast cell, low cell density CHMC, 8pt, read-out: LD Tryptase, CHMC, IgE, 8pt): < 10 µM; IC50 ([2]; Homo sapiens, Mast cell, low cell density CHMC, ionomycin activation (2 μM final), 3pt): > 10 µM
Fc1cnc(Nc2ccc(-c3cnco3)cc2)nc1Nc1ccc2c(c1)NCCO2 [Compound 222, N4-(3,4-Dihydro-2H,4H-Benz[1,4]oxazin-6-yl)-5-fluoro-N2-[4-(oxazol-5-yl)phenyl]-2,4-pyrimidinediamine] |  |  |  | < 10 | IC50 [1, 7]: < 10 µM; IC50 [2, 8]: > 10 µM
N2-(3-Chloro-4-methoxyphenyl)-N4-(2,2-dimethyl-3-oxo-4H-benz[1,4]oxazin-6-yl)-5-fluoro-N4-methyl-2,4-pyrimidinediamine [Compound 394] |  |  |  |  | IC50 [1, 10]: < 10 µM; IC50 [2, 11]: < 10 µM
COC(=O)Cn1ccc2ccc(Nc3ncc(F)c(Nc4ccc5c(c4)OCCO5)n3)cc21 [Compound 642, N4-(3,4-Ethylenedioxyphenyl)-5-fluoro-N2-[1-(methoxycarbonylmethylene)indol-6-yl]-2,4-pyrimidinediamine] |  |  |  |  | IC50 [1, 10]: < 10 µM; IC50 ([1]; CHMC low cell density, 8pt, read-out: LD Tryptase, CHMC, IgE, 8pt): < 10 µM; IC50 [2, 11]: > 10 µM
CNC(=O)COc1cccc(Nc2ncc(F)c(Nc3ccc4c(n3)NCC(C)(C)O4)n2)c1 [Compound 1053, N4-(3,4-Dihydro-2,2-dimethyl-4H-5-pyrid[1,4]oxazin-6-yl)-5-fluoro-N2-[3-(N-methylamino)carbonylmethyleneoxyphenyl]-2,4-pyrimidinediamine] | < 10 | < 10 | > 10 |  | 
CN1C(=O)C(C)(C)Oc2ccc(N(C)c3nc(Cl)ncc3F)nc21 [Compound 1005, 2-Chloro-5-fluoro-N4-methyl-N4-(3-oxo-2,2,4-trimethyl-5-pyrid[1,4]oxazin-6-yl)-4-pyrimdinea mine] |  |  |  |  | IC50 [1, 10]: < 10 µM; IC50 [2, 11]: > 10 µM
CNC(=O)COc1cccc(Nc2ncc(F)c(N(CC(=O)OC)c3ccc4c(c3)OCCO4)n2)c1 [Compound 446, N4-(3,4-Ethylenedioxyphenyl)-5-fluoro-N4-(methoxycarbonylmethyl)-N2-[3-(N-methylamino)carbonylmethyleneoxyphenyl]-2,4-pyrimidinediamine] |  |  |  |  | IC50 [1, 10]: < 10 µM; IC50 [2, 11]: > 10 µM
CC(C)(C)OC(=O)NCC(=O)NCc1ccc(Nc2ncc(F)c(Nc3ccc4c(c3)NC(=O)C(F)(F)O4)n2)cc1 [Compound 1309, N2-[4-[1-(tert-Butoxycarbonylamino)methylenecarbonylamino]methylphenyl]-N4-(2,2-difluoro-3-oxo-4H-benz[1,4]oxazin-6-yl)-5-fluoro-2,4-pyrimidinediamine] |  |  |  | < 10 | IC50 [1, 7]: < 10 µM; IC50 [2, 9]: > 10 µM
CNC(=O)COc1c(C)cc(Nc2ncc(F)c(Nc3ccc4c(c3)OC(F)(F)C(F)(F)O4)n2)cc1C [Compound 637, N2-[3,5-Dimethyl-4-(N-methylamino)carbonylmethyleneoxyphenyl]-5-fluoro-N4-[3,4-(tetrafluoroethylenedioxy)phenyl]-2,4-pyrimidinediamine] |  |  |  |  | IC50 [1, 10]: < 10 µM; IC50 [2, 11]: > 10 µM
NC(=S)c1cccc(Nc2ncc(F)c(Nc3ccc4c(c3)NC(=O)C(CCO)O4)n2)c1 (centres unmarked) [Compound 262, N2-(3-Benzothioamide)-5-fluoro-N4-[2-(2-hydroxyethyl)-3-oxo-2H,4H-benz[1,4]oxazin-6-yl]-2,4-pyrimidinediamine] |  |  |  | < 10 | IC50 [2, 8]: > 10 µM
CNC(=O)COc1c(C)cc(Nc2ncc(F)c(Nc3ccc4c(n3)NC(=O)C(C)(C)O4)n2)cc1Cl [Compound 1037, N2-[3-Chloro-5-methyl-4-(N-methylamino)carbonylmethyleneoxyphenyl]-N4-(2,2-dimethyl-3-oxo-4H-5-pyrid[1,4]oxazin-6-yl)-5-fluoro-2,4-pyrimidinediamine] |  | < 10 | > 10 |  | 
CNC(=O)COc1cccc(Nc2ncc(F)c(Nc3ccc4c(n3)N(C)C(=O)C(C)(C)O4)n2)c1 [Compound 1015, 5-Fluoro-N2-[3-(N-methylamino)carbonylmethyleneoxyphenyl]-N4-[3-oxo-2,2,4-trimethyl-5-pyrid[1,4]oxazin-6-yl]-2,4-pyrimidinediamine] | < 10 | < 10 | > 10 |  | 
CNC(=O)COc1cccc(Nc2ncc(F)c(Nc3ccc4c(c3)NC(=O)C(F)(F)O4)n2)c1 [Compound 1046, N4-(2,2-Difluoro-3-oxo-4H-benz[1,4]oxazin-6-yl)-5-fluoro-N2-[3-(N-methylamino)carbonylmethyleneoxyphenyl]-2,4-pyrimidinediamine Methanesulfonic Acid Salt] | < 10 | < 10 | > 10 |  | 

The next lines start with results.

IC50 [1, 3] [µM] | IC50 [1, 4] [µM] | IC50 [2, 5] [µM] | IC50 [1, 6] [µM] | Compound | further results
< 10 | < 10 | > 10 |  | CC1(C)Oc2ccc(Nc3nc(Nc4ccc5c(c4)OCCO5)ncc3F)nc2NC1=O [Compound 1055, N4-(2,2-Dimethyl-3-oxo-4H-5-pyrid[1,4]oxazin-6-yl)-N2-(3,4-ethylenedioxyphenyl)-5-fluoro-2,4-pyrimidinediamine] | 
 |  |  | < 10 | CC1(C)COc2ccc(Nc3nc(Nc4ccc(-c5ncco5)cc4)ncc3F)cc2N1 [Compound 238, N4-(3,4-Dihydro-3,3-dimethyl-2H,4H-benz[1,4]oxazin-6-yl)-5-fluoro-N2-[4-(oxazol-2-yl)phenyl]-2,4-pyrimidinediamine] | IC50 [1, 7]: < 10 µM; IC50 [2, 8]: > 10 µM
 |  |  | < 10 | CNC(=O)CNC(=O)c1ccc(Nc2ncc(F)c(Nc3ccc4c(c3)NC(=O)[C@H](C)O4)n2)cc1 [Compound 1296, (S)-5-Fluoro-N2-[4-[N-(N-methylamino)carbonylmethylene]aminocarbonylphenyl]-N4-(2-methyl-3-oxo-2H,4H-benz[1,4]oxazin-6-yl)-2,4-pyrimidinediamine] | IC50 [1, 7]: < 10 µM; IC50 [2, 9]: > 10 µM
 |  |  | < 10 | CN1CCOc2ccc(Nc3nc(Nc4ccc(-c5ncco5)cc4)ncc3F)cc21 [Compound 243, N4-(2,3-Dihydro-4-methyl-2H-benz[1,4]oxazin-6-yl)-5-fluoro-N2-[4-(oxazol-2-yl)phenyl]-2,4-pyrimidinediamine] | IC50 [1, 7]: < 10 µM; IC50 [2, 8]: > 10 µM
< 10 | < 10 | > 10 |  | CC(C)n1ncc2ccc(Nc3ncc(F)c(Nc4ccc5c(n4)NC(=O)C(C)(C)O5)n3)cc21 [Compound 1050, N4-(2,2-Dimethyl-3-oxo-4H-5-pyrid[1,4]oxazin-6-yl)-N2-(1-isopropylindazol-6-yl)-5-fluoro-2,4-pyrimidinediamine] | 
< 10 | < 10 | > 10 |  | CNC(=O)COc1cccc(Nc2ncc(F)c(N(C)c3ccc4c(c3)NC(=O)C(C)(C)O4)n2)c1 [Compound 1022, N4-(2,2-Dimethyl-3-oxo-4H-benz[1,4]oxazin-6-yl)-5-fluoro-N4-methyl-N2-[3-(N-methylamino)carbonylmethyleneoxyphenyl]-2,4-pyrimidinediamine] | 
< 10 | < 10 | > 10 |  | C[C@@H]1Oc2ccc(Nc3nc(Nc4cc(C(C)(C)C)[nH]n4)ncc3F)nc2NC1=O [Compound 1092, (S)—N2-(5-tert-Butyl-1H-pyrazol-3-yl)-5-fluoro-N4-(2-methyl-3-oxo-2H,4H-5-pyrid[1,4]oxazin-6-yl)-2,4-pyrimidinediamine] | 
< 10 | < 10 | > 10 |  | CC1(C)Oc2ccc(Nc3nc(Nc4cccc(-c5cocn5)c4)ncc3F)nc2NC1=O [Compound 1029, N4-(2,2-Dimethyl-3-oxo-4H-5-pyrid[1,4]oxazin-6-yl)-5-fluoro-N2-[3-(oxazol-4-yl)phenyl]-2,4-pyrimidinediamine] | 
< 10 | < 10 | < 10 |  | Cn1ncc2ccc(Nc3ncc(F)c(Nc4ccc5c(n4)NCC(C)(C)O5)n3)cc21 [Compound 1052, N4-(3,4-Dihydro-2,2-dimethyl-4H-5-pyrid[1,4]oxazin-6-yl)-5-fluoro-N2-(1-methylindazol-6-yl)-2,4-pyrimidinediamine] | 
 |  |  | < 10 | NC(=S)c1cccc(Nc2ncc(F)c(Nc3ccc4c(c3)NC(=O)CO4)n2)c1 [Compound 261, N2-(3-Benzothioamide)-5-fluoro-N4-(3-oxo-2H,4H-benz[1,4]oxazin-6-yl)-2,4-pyrimidinediamine] | IC50 [2, 8]: > 10 µM
 | > 10 | < 10 |  | Cc1cc(Nc2ncc(F)c(Nc3ccc4c(n3)NC(=O)C(C)(C)O4)n2)cc(Cl)c1OC(C)C [Compound 1040, N2-(3-Chloro-4-isopropoxy-5-methylphenyl)-N4-(2,2-dimethyl-3-oxo-4H-5-pyrid[1,4]oxazin-6-yl)-5-fluoro-2,4-pyrimidinediamine] | 
 |  |  | < 10 | COc1ccc(Nc2ncc(F)c(Nc3ccc4c(n3)NCCO4)n2)cc1Cl [Compound 1146, N2-(3-Chloro-4-methoxyphenyl)-N4-(3,4-dihydro-2H,4H-5-pyrid[1,4]oxazin-6-yl)-5-fluoro-2,4-pyrimidinediamine] | IC50 [2, 9]: > 10 µM
